Data on 2 molecules can be found in patent publication US12077503B2, “Substituted cyclic amides and their use as herbicides” (FMC CORPORATION, priority 2015, dated 2024).

What all share (format): in vivo
In assay [1] the test system is Kochia (Kochia scoparia). Description: Test A preemergence. The following applies: Bassia scoparia, pre-emergence, 240 h; for pest or weed control at 125 g/ha: 125 g ai/ha, preemergence, 0 to 100 scale where 0 is no effect and 100 is complete control, read-out: Kochia plant response rating; for pest or weed control at 500 g/ha: 500 g ai/ha, Preemergence, visual injury vs untreated controls after approximately 10 d, read-out: Kochia plant response rating (0 to 100 scale where 0 is no effect and 100 is complete control). In outline: (§1)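 Visual injury, scored on a 0–100 scale relative to untreated controls, was recorded about 10 d after application. Treatments were a preemergence soil spray over planted seeds or a postemergence spray on plants at the one- to two-leaf stage, 2 to 10 cm tall, all in loam soil–sand blend in the greenhouse.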

Assay [2] concerns barnyardgrass (Echinochloa crus-galli). The experiment in a line: Test A preemergence. The settings on record: Echinochloa crus-galli, pre-emergence, 240 h; for pest or weed control at 125 g/ha: 125 g ai/ha, preemergence, 0 to 100 scale where 0 is no effect and 100 is complete control, read-out: Barnyardgrass plant response rating; for pest or weed control at 500 g/ha: 500 g ai/ha, Preemergence, visual injury vs untreated controls after approximately 10 d, read-out: Barnyardgrass plant response rating (0 to 100 scale where 0 is no effect and 100 is complete control). Put shortly: as §1

For assay [3], the system named is giant foxtail (Setaria faberii). The experiment in a line: Test A preemergence. The settings on record: Setaria faberi, pre-emergence, 240 h; for pest or weed control at 125 g/ha: 125 g ai/ha, preemergence, 0 to 100 scale where 0 is no effect and 100 is complete control, read-out: Foxtail, Giant plant response rating; for pest or weed control at 500 g/ha: 500 g ai/ha, Preemergence, visual injury vs untreated controls after approximately 10 d, read-out: Foxtail, Giant plant response rating (0 to 100 scale where 0 is no effect and 100 is complete control). In outline: as §1

Assay [4] concerns pigweed (Amaranthus retroflexus). The experiment in a line: Test A preemergence. The settings on record: Amaranthus retroflexus, pre-emergence, 240 h; for pest or weed control at 125 g/ha: 125 g ai/ha, preemergence, 0 to 100 scale where 0 is no effect and 100 is complete control, read-out: Pigweed plant response rating; for pest or weed control at 500 g/ha: 500 g ai/ha, Preemergence, visual injury vs untreated controls after approximately 10 d, read-out: Pigweed plant response rating (0 to 100 scale where 0 is no effect and 100 is complete control).

Assay [5] concerns ragweed (common ragweed, Ambrosia elatior). The experiment in a line: Test A preemergence. The settings on record: Ambrosia artemisiifolia, pre-emergence, 240 h; for pest or weed control at 125 g/ha: 125 g ai/ha, preemergence, 0 to 100 scale where 0 is no effect and 100 is complete control, read-out: Ragweed plant response rating; for pest or weed control at 500 g/ha: 500 g ai/ha, Preemergence, visual injury vs untreated controls after approximately 10 d, read-out: Ragweed plant response rating (0 to 100 scale where 0 is no effect and 100 is complete control). In outline:
as §1

The test system of assay [6] is ryegrass, Italian (Italian ryegrass, Lolium multiflorum). The experiment in a line: Test A preemergence. The settings on record: Lolium multiflorum, pre-emergence, 240 h; for pest or weed control at 125 g/ha: 125 g ai/ha, preemergence, 0 to 100 scale where 0 is no effect and 100 is complete control, read-out: Ryegrass, Italian plant response rating; for pest or weed control at 500 g/ha: 500 g ai/ha, Preemergence, visual injury vs untreated controls after approximately 10 d, read-out: Ryegrass, Italian plant response rating (0 to 100 scale where 0 is no effect and 100 is complete control). In outline:
as §1

The test system of assay [7] is Galium (catchweed bedstraw, Galium aparine). The experiment in a line: Test A postemergence. The settings on record: Galium, post-emergence, 240 h, 125 g ai/ha, postemergence, visual injury rating after approximately 10 d; read-out: Galium plant response rating (0 to 100 scale, 0 no effect, 100 complete control). In outline: as §1
For assay [8], the system named is Kochia (Kochia scoparia). The experiment in a line: Test A postemergence. The settings on record: Bassia scoparia, post-emergence, 240 h, 125 g ai/ha, postemergence, visual injury rating after approximately 10 d; read-out: Kochia plant response rating (0 to 100 scale, 0 no effect, 100 complete control). Put shortly: as §1
Assay [9] relates to barnyardgrass (Echinochloa crus-galli). The experiment in a line: Test A postemergence. The following applies: Echinochloa crus-galli, post-emergence, 240 h, 125 g ai/ha, postemergence, visual injury rating after approximately 10 d; read-out: Barnyardgrass plant response rating (0 to 100 scale, 0 no effect, 100 complete control). Put shortly: as §1
In assay [10] the test system is blackgrass (Alopecurus myosuroides). The experiment in a line: Test A postemergence. The settings on record: Alopecurus myosuroides, post-emergence, 240 h, 125 g ai/ha, postemergence, visual injury rating after approximately 10 d; read-out: Blackgrass plant response rating (0 to 100 scale, 0 no effect, 100 complete control). Put shortly: as §1
Another assay concerns corn (Zea mays). The experiment in a line: Test A postemergence. The settings on record: Zea mays, post-emergence, 240 h, 125 g ai/ha, postemergence, visual injury rating after approximately 10 d; read-out: Corn plant response rating (0 to 100 scale, 0 no effect, 100 complete control). In outline:
as §1

Assay [11] has as its system giant foxtail (Setaria faberii). Description: Test A postemergence. The settings on record: Setaria faberi, post-emergence, 240 h, 125 g ai/ha, postemergence, visual injury rating after approximately 10 d; read-out: Foxtail, Giant plant response rating (0 to 100 scale, 0 no effect, 100 complete control). In outline:
as §1

Assay [12] has as its system ragweed (common ragweed, Ambrosia elatior). Description: Test A postemergence. The settings on record: Ambrosia artemisiifolia, post-emergence, 240 h, 125 g ai/ha, postemergence, visual injury rating after approximately 10 d; read-out: Ragweed plant response rating (0 to 100 scale, 0 no effect, 100 complete control). In outline: as §1
The subject of assay [13] is ryegrass, Italian (Italian ryegrass, Lolium multiflorum). The experiment in a line: Test A postemergence. The settings on record: Lolium multiflorum, post-emergence, 240 h, 125 g ai/ha, postemergence, visual injury rating after approximately 10 d; read-out: Ryegrass, Italian plant response rating (0 to 100 scale, 0 no effect, 100 complete control). Put shortly:
as §1

In assay [14] the test system is wheat (Triticum aestivum). The experiment in a line: Test A postemergence. The settings on record: Triticum aestivum, post-emergence, 240 h, 125 g ai/ha, postemergence, visual injury rating after approximately 10 d; read-out: Wheat plant response rating (0 to 100 scale, 0 no effect, 100 complete control). Put shortly: as §1

As for `CN1C[C@H](c2cc(F)c(F)c(F)c2)[C@@H](C(=O)Nc2cccc(F)c2F)C1=O` [Compound 879], the pest or weed control at 125 g/ha came out at 80% in the assay with Kochia (Kochia scoparia) [1]; 100% in [2]; 100% in assay [3]; 70% in [4]; 50% in [5]; 60% in assay [6]. Also, the pest or weed control at 125 g/ha in assay [7] came to 50%; in the assay with Kochia (Kochia scoparia) [8] it was 60%; in [9], 100%; in assay [10], 70%; in [11] it was 80%; in assay [12], 20%. For the same molecule, in [13], the pest or weed control at 125 g/ha is 70%. Also, the pest or weed control at 500 g/ha amounted to 90% in the assay on Kochia (Kochia scoparia) [1]; 100% in assay [2]; 100% in assay [3]; 80% in [4]; 90% in [5]; 90% in assay [6]. Moreover, the plant injury at 125 g/ha in the assay with corn (Zea mays) came to 60%; in [14], 70%.
Turning to `COc1c(F)ccc([C@H]2CN(C)C(=O)[C@@H]2C(=O)Nc2ccccc2C(F)(F)F)c1Cl` [Compound 896], the pest or weed control at 125 g/ha in the assay with Kochia (Kochia scoparia) [1] amounted to 30%; in assay [2] it was 90%; in assay [3], 90%; in assay [4], 20%; in assay [5], 0%; in [6], 40%. Also, the pest or weed control at 125 g/ha in assay [7] amounted to 40%; in the assay on Kochia (Kochia scoparia) [8] it was 20%; in [9], 90%; in [10], 40%; in [11] it was 90%; in assay [12] it was 0%. In assay [13], the pest or weed control at 125 g/ha was 50%. In addition, the pest or weed control at 500 g/ha with Kochia (Kochia scoparia) [1] was 50%; in assay [2], 90%; in assay [3], 100%; in [4], 40%; in [5] it was 0%; in assay [6], 70%. Besides, the plant injury at 125 g/ha in the assay with corn (Zea mays) worked out at 20%; in assay [14] it was 30%.
